Test results as given in US20240173403A1, “Combination of AXL Antibodies and ACE Inhibitors in the Treatment of Fibrosis” (BERGENBIO ASA, priority 2021, published 2024).
Entries after “also recorded” stand apart in the source; their conditions may differ. Where two headings read alike, the source gives them in different places.

How the values were obtained:
[1] = tested on: Collagen 1a1; assay: Collagen 1a1 levels in human PCKS culture supernatants (ELISA); type: cell-based
Experimental: (§1) PCKS were prepared from explanted kidney tissue and rested for 24 hours to allow the post-slicing stress period to elapse before experiments began. All PCKS were harvested at 96 hrs.
(§2) PCKS were incubated for a 24 hr rest period. Post-rest, PCKS were incubated for a further 72 hrs in the presence or absence of inhibitors. PCKS culture media, including all compounds, was refreshed and harvested at 24 hrs intervals. All PCKS were harvested at 96 hrs.
(§3) Tissue culture supernatant (n=3 paired wells) were collected every 24 hrs and snap frozen for quantification of soluble outputs. At 96 hrs n=4 PCKS were snap frozen for RNA extraction and n=2 PCKS were formalin fixed paraffin embedded (FFPE) for IHC.
(§4) Levels of collagen 1a1, IL-6, Hyaluronic Acid and TIMP-1 in the tissue culture supernatants (n=165 samples per donor) were quantified using R&D Duoset ELISA kits.
Levels of collagen 1a1 in the tissue culture supernatants were quantified using R&D Duoset ELISA kits.

[2] = tested on: TIMP-1; assay: TIMP-1 levels in human PCKS culture supernatants (ELISA); type: cell-based
Experimental: as §1, §2, §3, §4

[3] = tested on: IL-6; assay: IL-6 levels in human PCKS culture supernatants (ELISA); type: cell-based; conditions: two of the high doses of Bemcentinib; early time point (48 hrs)
Experimental: as §1, §2, §3, §4

[4] = tested on: αSMA (activated myofibroblasts); assay: α-SMA staining of PCKS sections, % area positive; type: cell-based, human; conditions: 96 hrs harvest
Experimental: as §1, §3
FFPE tissue was cut into 5 μm sections and stained for Picrosirius Red and α-Smooth Muscle Actin (αSMA) (n=19 samples per donor). Analysis was performed by a pathology trained technical staff member without knowledge of the sample ID. High magnification images were taken of each slide and analysed for the surface area covered by the stain (e.g. percentage area positive for Oil Red O, Picrosirius or αSMA).
α-SMA stained PCKS sections were prepared. Up to 25 high magnification images (×20) from each PCKS were quantified for the percentage area of tissue positive for stain and averaged to give a mean tissue area positive for α-SMA.
Histological effects of treatments were assessed on the basis of changes in percentage positive area stained for αSMA (activated myofibroblasts) and Picrosirius Red (collagen deposition).

[5] = tested on: liver fibrosis; conditions: mice; Barcena et al. 2015; cited from earlier work
[6] = tested on: lung fibrosis; conditions: two mouse lung fibrosis models; Espindola et al. 2018; cited from earlier work
[7] = tested on: kidney fibrosis; conditions: UUO mice, bemcentinib monotherapy, Landolt et al. 2019, cited from earlier work
[8] = tested on: Hyaluronic Acid; assay: Hyaluronic Acid levels in human PCKS culture supernatants (ELISA); type: cell-based; conditions: Nintedanib 4 μM
Experimental: as §1, §2, §3, §4

[9] = 4 μM, 72 hrs and 96 hrs of treatment, positive control
[10] = Enalapril alone (0.75, 0.15 μM)
[11] = Tilvestamab monotherapy (1 to 125 μg/mL)

## Nc1nc(Nc2ccc3c(c2)CC[C@@H](N2CCCC2)CC3)nn1-c1cc2c(nn1)-c1ccccc1CCC2 [Bemcentinib, 1-(6,7-dihydro-5H-benzo[6,7]cyclohepta[1,2-c]pyridazin-3-yl)-N^3-((7-(S)-pyrrolidin-1-yl)-6,7,8,9-tetrahydro-5H-benzo[7]annulene-2-yl)-1H-1,2,4-triazole-3,5-diamine]
[1]; Bemcentinib monotherapy, all doses (0.11, 0.33, 1, 3 μM), not dose dependent
  Collagen 1a1 production: able to reduce production of the fibrotic markers Collagen 1a1 and TIMP-1 at all doses
[2]; Bemcentinib monotherapy, all doses (0.11, 0.33, 1, 3 μM)
  TIMP-1 production: able to reduce production of the fibrotic markers Collagen 1a1 and TIMP-1 at all doses
[3]
  IL-6 secretion: spike in IL-6 secretion
[4]; Bemcentinib singly, 3 μM
  αSMA, percentage positive area: reduce expression of the fibrotic marker αSMA; also recorded: reduced
[5]
  liver fibrosis: reduced liver fibrosis
[6]
  fibrosis development in lung: reduction in fibrosis development
[7]
  fibrosis development in kidney: attenuate fibrosis and reduce inflammation
[7]; listed as bemcentinib
  fibrosis development in kidney: less fibrosis development

## COC(=O)c1ccc2c(c1)NC(=O)/C2=C(\Nc1ccc(N(C)C(=O)CN2CCN(C)CC2)cc1)c1ccccc1 [Nintedanib]
[1]; [9]
  Collagen 1a1 production: inhibited Collagen 1a1 production
[2]; [9]
  TIMP-1 production: significantly inhibit TIMP-1 production
[8]
  Hyaluronic acid: readily reduced

## CCOC(=O)[C@H](CCc1ccccc1)N[C@@H](C)C(=O)N1CCC[C@H]1C(=O)O [Enalapril]
[1]; [10]
  Collagen 1a1 secretion: did not show any efficacy towards reducing Collagen 1a1 secretion
[2]; [10]
  TIMP-1 secretion: did not show any efficacy towards reducing TIMP-1 secretion
[4]; Enalapril singly, 0.15 μM
  αSMA, percentage positive area: reduced
[4]; Enalapril singly, 0.15 μM, listed as Enalaril
  αSMA, percentage positive area: reduce expression of the fibrotic marker αSMA

B1: Tilvestamab: novel humanized anti-AXL antibody that blocks GAS6-mediated AXL receptor activation; VH SEQ ID No.1, VL SEQ ID No.2 (antibody, V domains shown)
VH: EVQLVESGGGLVQPGGSLRLSCAASGYSFTDFYINWVRQAPGKGLEWVARIFPGGDNTYYNEKFKGRFTLSADTSKSTAYLQMNSLRAEDTAVYYCARRGLYYAMDYWGQGTLVTVSS
VL: DIQMTQSPSSLSASVGDRVTITCRSSQSLVHSNGIPYLHWYQQKPGKAPKLLIYRVSNRFSGVPSRFSGSGSGTDFTLTISSLQPEDFATYYCSQGTHVPPTFGQGTKVEIK
modifications: BGB149 VH; BGB149 VL
[1]; [11]
  Collagen 1a1 secretion: no effect on reducing Collagen 1a1 or TIMP-1 secretion; also recorded: no effect on reducing Collagen 1a1 secretion
[2]; [11]
  TIMP-1 secretion: no effect on reducing Collagen 1a1 or TIMP-1 secretion; also recorded: no effect on reducing TIMP-1 secretion
[4]; Tilvestamab singly, three of the highest doses
  αSMA, percentage positive area: did reduce αSMA; also recorded: reduced
